These results are taken from US20140155410A1 (GlaxoSmithKline LLC, priority 2008, published 2014).

Molecules are shown by their SMILES.

T1 sequence (Q05397 whole entry): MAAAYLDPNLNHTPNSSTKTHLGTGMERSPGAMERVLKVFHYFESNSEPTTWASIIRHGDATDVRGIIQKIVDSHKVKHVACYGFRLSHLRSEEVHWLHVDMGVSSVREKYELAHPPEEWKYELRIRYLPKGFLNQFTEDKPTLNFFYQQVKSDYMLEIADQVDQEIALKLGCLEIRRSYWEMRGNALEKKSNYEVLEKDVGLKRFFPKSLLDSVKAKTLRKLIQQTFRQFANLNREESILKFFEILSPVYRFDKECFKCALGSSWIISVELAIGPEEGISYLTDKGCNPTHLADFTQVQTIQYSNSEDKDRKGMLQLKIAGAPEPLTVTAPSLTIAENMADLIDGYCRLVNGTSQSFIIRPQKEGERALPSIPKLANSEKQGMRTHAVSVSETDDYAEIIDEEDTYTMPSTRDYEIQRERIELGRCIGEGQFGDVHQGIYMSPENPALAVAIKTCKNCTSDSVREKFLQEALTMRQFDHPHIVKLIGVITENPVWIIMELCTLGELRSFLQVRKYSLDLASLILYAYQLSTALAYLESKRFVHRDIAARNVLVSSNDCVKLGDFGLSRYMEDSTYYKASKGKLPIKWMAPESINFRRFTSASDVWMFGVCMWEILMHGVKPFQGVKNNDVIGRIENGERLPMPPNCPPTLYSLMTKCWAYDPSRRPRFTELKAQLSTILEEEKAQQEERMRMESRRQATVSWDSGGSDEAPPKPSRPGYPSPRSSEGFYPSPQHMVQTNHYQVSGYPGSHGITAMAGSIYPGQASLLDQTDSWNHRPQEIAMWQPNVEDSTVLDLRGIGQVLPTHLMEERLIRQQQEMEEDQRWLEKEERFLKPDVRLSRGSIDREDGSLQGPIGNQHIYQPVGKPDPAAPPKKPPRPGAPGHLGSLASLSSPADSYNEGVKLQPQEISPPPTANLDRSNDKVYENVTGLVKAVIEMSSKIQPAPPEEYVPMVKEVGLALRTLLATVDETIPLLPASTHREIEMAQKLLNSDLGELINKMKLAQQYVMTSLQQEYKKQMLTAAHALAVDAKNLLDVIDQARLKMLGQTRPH

One test concerns the target T1, Full length Human FAK (Flag-His-TEV-FAK1) (Homo sapiens, UniProt Q05397).
T1 construct: Full length Human FAK was expressed using baculovirus in Sf9 cells; made in house; host or cells: baculovirus in Sf9 cells
Put plainly: Biochemical assay for FAK activity, Assay 2: LANCE Ultra ULight peptide phosphorylation, 665 nm/615 nm ratio. To be noted: Flag-His-TEV-FAK1, 10 μM ATP, 30 min pre-incubation; read-out: Assay 2 FAK H 31284A TRF PXC50 (converted). How it is done: Flag-His-TEV-FAK1 was prepared in-house. Full length Human FAK was expressed using baculovirus in Sf9 cells with N-terminal FLAG-6×His tags followed by a TEV cleavage site (FLAG-6×His-TEV-huFAK). […] To measure inhibitors of FAK, compounds were first prepared as a 100× stock in 100% DMSO. […] After incubating for 120 minutes at room temperature, the reaction is quenched by adding 5 uL of 20 mM EDTA and 5nMEu-Anti-pTyr antibody in 1× LANCE detection buffer.
(In general: In TR-FRET formats the signal depends on donor and acceptor labels being close together.)
Regarding `CONC(=O)c1ccccc1Nc1cc(Nc2c(C)cnn2C(C)C)ncc1Cl` [Example 49, 2-[(5-Chloro-2-{[4-methyl-1-(1-methylethyl)-1H-pyrazol-5-yl]amino}-4-pyridinyl)amino]-N-(methyloxy)benzamide], the IC50 was 63.1 nM. Still for that read-out and setting: to `CONC(=O)c1cc(Cl)ccc1Nc1cc(Nc2cc(C)nn2C(C)C)ncc1Cl` [Example 70] belongs 6.31 nM. Same read-out and setting: to `CCn1nc(C)cc1Nc1cc(Nc2c(F)cccc2C(=O)NOC)c(Cl)cn1` [Example 95a, 2-({5-Chloro-2-[(1-ethyl-3-methyl-1H-pyrazol-5-yl)amino]-4-pyridinyl}amino)-3-fluoro-N-(methyloxy)benzamide] belongs 1.58 nM.

With `CNC(=O)c1cccc(F)c1Nc1cc(Nc2cc(CCO)nn2C)ncc1C(F)(F)F` [Example 82, 3-Fluoro-2-{[2-{[3-(2-hydroxyethyl)-1-methyl-1H-pyrazol-5-yl]amino}-5-(trifluoromethyl)-4-pyridinyl]amino}-N-methylbenzamide], the IC50 was 0.794 nM.

Take `CONC(=O)c1ccc(F)cc1Nc1cc(Nc2cc(C)nn2C(C)C)ncc1Cl` [Example 73, 2-[(5-Chloro-2-{[3-methyl-1-(1-methylethyl)-1H-pyrazol-5-yl]amino}-4-pyridinyl)amino]-4-fluoro-N-(methyloxy)benzamide]: the IC50 is 1.26 nM. Same read-out and setting: to `CONC(=O)c1ccccc1Nc1cc(Nc2cnn(C)c2C)ncc1Cl` [Example 47, 2-({5-Chloro-2-[(1,5-dimethyl-1H-pyrazol-4-yl)amino]-4-pyridinyl}amino)-N-(methyloxy)benzamide] belongs 2.51 nM; to `CCn1nc(C)cc1Nc1cc(Nc2c(F)cccc2C(=O)NC)c(Cl)cn1` [Example 74, 2-({5-Chloro-2-[(1-ethyl-3-methyl-1H-pyrazol-5-yl)amino]-4-pyridinyl}amino)-3-fluoro-N-methylbenzamide], 3.16 nM; to `CCn1nc(CO)cc1Nc1cc(Nc2c(F)cccc2C(=O)NC)c(C(F)(F)F)cn1` [Example 79, 2-{[2-{[1-Ethyl-3-(hydroxymethyl)-1H-pyrazol-5-yl]amino}-5-(trifluoromethyl)-4-pyridinyl]amino}-3-fluoro-N-methylbenzamide], 10 nM.

As for `CCn1nc(CN(C)C)cc1Nc1cc(Nc2c(F)cccc2C(=O)NC)c(Cl)cn1` [Example 92, 2-{[5-Chloro-2-({3-[(dimethylamino)methyl]-1-ethyl-1H-pyrazol-5-yl}amino)-4-pyridinyl]amino}-3-fluoro-N-methylbenzamide], the IC50 was 501 nM. Still for that read-out and setting: to `CONC(=O)c1ccccc1Nc1cc(Nc2cc(C)nn2C)ncc1C1CC1` [Example 55, 2-[5-Cyclopropyl-2-(2,5-dimethyl-2H-pyrazol-3-ylamino)-pyridin-4-ylamino]-N-methoxy-benzamide] belongs 10 nM; to `CONC(=O)c1cccc(F)c1Nc1cc(Nc2cc(CO)nn2C)ncc1Cl` [Example 95d, 2-[(5-Chloro-2-{[3-(hydroxymethyl)-1-methyl-1H-pyrazol-5-yl]amino}-4-pyridinyl)amino]-3-fluoro-N-(methyloxy)benzamide], 20 nM; to `CONC(=O)c1cc(F)ccc1Nc1cc(Nc2cc(C)nn2C(C)C)ncc1Cl` [Example 71, 2-[(5-Chloro-2-{[3-methyl-1-(1-methylethyl)-1H-pyrazol-5-yl]amino}-4-pyridinyl)amino]-5-fluoro-N-(methyloxy)benzamide], 6.31 nM. As for `[2H]C([2H])(O)c1cc(Nc2cc(Nc3c(F)cccc3C(=O)NC)c(Cl)cn2)n(CC)n1` [Example 94, 2-[(5-Chloro-2-{[1-ethyl-3-(hydroxymethyl)-1H-pyrazol-5-yl]amino}-4-pyridinyl)amino]-3-fluoro-N-methylbenzamide-d2], the IC50 was 3.98 nM. For the compound `CCn1ncc(C)c1Nc1cc(Nc2ccccc2C(=O)NOC)c(Cl)cn1` [Example 50, 2-({5-Chloro-2-[(1-ethyl-4-methyl-1H-pyrazol-5-yl)amino]-4-pyridinyl}amino)-N-(methyloxy)benzamide], the IC50 was 12.6 nM. As to `Cc1cc(Nc2cc(Nc3ccc(F)cc3C(=O)N3CCCN3C)c(Cl)cn2)n(C(C)C)n1` [Example 96b, 5-Chloro-N^4-{4-fluoro-2-[(2-methyl-1-pyrazolidinyl)carbonyl]phenyl}-N^2-[3-methyl-1-(1-methylethyl)-1H-pyrazol-5-yl]-2,4-pyridinediamine], the IC50 was 2000 nM. As to `Cc1cc(Nc2cc(Nc3ccc(F)cc3C(=O)N3CCCN3)c(Cl)cn2)n(C(C)C)n1` [Example 96a, 5-Chloro-N^4-[4-fluoro-2-(1-pyrazolidinylcarbonyl)phenyl]-N^2-[3-methyl-1-(1-methylethyl)-1H-pyrazol-5-yl]-2,4-pyridinediamine], the IC50 is 20000 nM. Turning to `[2H]C([2H])(O)c1cc(Nc2cc(Nc3c(F)cccc3C(=O)NC)c(Cl)cn2)n(C)n1` [Example 93, 2-[(5-Chloro-2-{[3-(hydroxymethyl)-1-methyl-1H-pyrazol-5-yl]amino}-4-pyridinyl)amino]-3-fluoro-N-methylbenzamide-d2], the IC50 was 10 nM. The same measure, in the same setting: under `CCOCc1cc(Nc2cc(Nc3ccccc3C(=O)NC)c(Cl)cn2)n(C(C)C)n1` [Example 61, 2-[(5-Chloro-2-{[3-[(ethyloxy)methyl]-1-(1-methylethyl)-1H-pyrazol-5-yl]amino}-4-pyridinyl)amino]-N-methylbenzamide] stands 25.1 nM. Same read-out and setting: to `CCn1nc(C)cc1Nc1cc(Nc2ccccc2C(=O)NOC)c(C2CC2)cn1` [Example 56, 2-[5-Cyclopropyl-2-(2-ethyl-5-methyl-2H-pyrazol-3-ylamino)-pyridin-4-ylamino]-N-methoxy-benzamide] belongs 15.8 nM. The same measure, in the same setting: under `CCn1nc(C)cc1Nc1cc(Nc2ccc(F)cc2C(=O)NC)c(Cl)cn1` [Example 84, 2-({5-Chloro-2-[(1-ethyl-3-methyl-1H-pyrazol-5-yl)amino]-4-pyridinyl}amino)-5-fluoro-N-methylbenzamide] stands 10 nM; under `CNC(=O)c1cccc(F)c1Nc1cc(Nc2cc(CN(C)C)nn2C)ncc1Cl` [Example 91, 2-{[5-Chloro-2-({3-[(dimethylamino)methyl]-1-methyl-1H-pyrazol-5-yl}amino)-4-pyridinyl]amino}-3-fluoro-N-methylbenzamide], 251 nM; under `CCn1nc(COC)cc1Nc1cc(Nc2ccccc2C(=O)NC)c(Cl)cn1` [Example 60, 2-{[5-Chloro-2-({1-ethyl-3-[(methyloxy)methyl]-1H-pyrazol-5-yl}amino)-4-pyridinyl]amino}-N-methylbenzamide], 12.6 nM.

Consider `CONC(=O)c1cccc(F)c1Nc1cc(Nc2cc(C)nn2C)ncc1Cl` [Example 95b, 2-({5-Chloro-2-[(1,3-dimethyl-1H-pyrazol-5-yl)amino]-4-pyridinyl}amino)-3-fluoro-N-(methyloxy)benzamide], for which the IC50 is 2 nM. For the compound `CCn1nc(C)cc1Nc1cc(Nc2ccccc2C(=O)NC)c(C2CC2)cn1` [Example 54, 2-[5-Cyclopropyl-2-(2-ethyl-5-methyl-2H-pyrazol-3-ylamino)-pyridin-4-ylamino]-N-methylbenzamide], the IC50 is 31.6 nM.

With `CONC(=O)c1ccc(Cl)cc1Nc1cc(Nc2cc(C)nn2C(C)C)ncc1Cl` [Example 69, 4-Chloro-2-[(5-chloro-2-{[3-methyl-1-(1-methylethyl)-1H-pyrazol-5-yl]amino}-4-pyridinyl)amino]-N-(methyloxy)benzamide], the IC50 is 2.51 nM.

In the next test the target is T2, GST-tagged FAK (Homo sapiens, UniProt Q05397).
T2 construct: purchased Invitrogen PV3832
T2 sequence (Q05397 whole entry): as above
Briefly: Biochemical assay for FAK activity, Assay 1: phosphorylation of peptide substrate with radio-labeled ATP. Conditions: 5 μM ATP, 30 min pre-incubation, read-out: Assay 1 FAK TRF PXC50 (converted). How it is done: GST-tagged (glutathione S-transferase-tagged) FAK was purchased from Invitrogen (PV3832) (www.invitrogen.com). […] To measure inhibitors of FAK, compounds were first prepared as a 10× stock in 10% DMSO. […] A 6-nM GST-FAK solution was prepared in 1.1× reaction buffer containing 44 mM HEPES, pH=7.2, 11 mM MgCl2, 2.2 mM MnCl2, 1.1 mM DTT and 0.011% Tween-20. Then, 20 μL of the 6 nM GST-FAK solution were pre-incubated with the compounds for 30 min at room temperature. […] The reaction was allowed to proceed for 90 min before being quenched with 40 μL of 1% H3PO4. A portion of the reaction mixture (60 μL) was transferred to a phospho-cellulose filter plate (Millipore; www.millipore.com, MAPHNOB50) and incubated for 20 minutes. The plate was filtrated, washed three times using 150 μL of 0.5% H3PO4 and dried at 50° C. for 30 min. After the addition of 60 μL Microscint-20 to the plate, radioactivity was measured using a TopCount (PerkinElmer; www.PerkinElmer.com).
`CNC(=O)c1ccccc1Nc1cc(Nc2cc(C)nn2CCO)ncc1C(F)(F)F` [Example 34, 2-{[2-{[1-(2-hydroxyethyl)-3-methyl-1H-pyrazol-5-yl]amino}-5-(trifluoromethyl)-4-pyridinyl]amino}-N-methylbenzamide]: the IC50 was 0.501 nM.

Consider `CCn1nc(C(=O)O)cc1Nc1cc(Nc2ccccc2C(=O)NC)c(Cl)cn1` [Example 18, 5-{[5-Chloro-4-({2-[(methylamino)carbonyl]phenyl}amino)-2-pyridinyl]amino}-1-ethyl-1H-pyrazole-3-carboxylic acid], for which the IC50 was 10 nM. On to `CNC(=O)c1ccccc1Nc1cc(Nc2cc(C)nn2-c2ccccc2)ncc1C(F)(F)F` [Example 33, N-Methyl-2-{[2-[(3-methyl-1-phenyl-1H-pyrazol-5-yl)amino]-5-(trifluoromethyl)-4-pyridinyl]amino}benzamide], for which the IC50 is 0.398 nM. On the same count and under the same terms, under `CNC(=O)c1ccccc1Nc1cc(Nc2cc(C)nn2CCN(C)C)ncc1C(F)(F)F` [Example 31, 2-{[2-({1-[2-(Dimethylamino)ethyl]-3-methyl-1H-pyrazol-5-yl}amino)-5-(trifluoromethyl)-4-pyridinyl]amino}-N-methylbenzamide] stands 3.98 nM.
